Measured values published in US8129355B2, “Ketone ligands for modulating the expression of exogenous genes via an ecdysone receptor complex” (priority 2002, dated 2012).
Read-outs that look alike come from different tables or passages of the source.

Target: T1, Bombyx mori EcR (VP16 fusion, switch construct CVBE) with 6XEcRE LacZ reporter (Bombyx mori, UniProt P49881)
T1 construct: expressed in transfected cells; host or cells: Human 293 kidney (HEK-293) cells, retrovirally infected, clone Z3
T1 sequence (P49881 86-606 limits assumed): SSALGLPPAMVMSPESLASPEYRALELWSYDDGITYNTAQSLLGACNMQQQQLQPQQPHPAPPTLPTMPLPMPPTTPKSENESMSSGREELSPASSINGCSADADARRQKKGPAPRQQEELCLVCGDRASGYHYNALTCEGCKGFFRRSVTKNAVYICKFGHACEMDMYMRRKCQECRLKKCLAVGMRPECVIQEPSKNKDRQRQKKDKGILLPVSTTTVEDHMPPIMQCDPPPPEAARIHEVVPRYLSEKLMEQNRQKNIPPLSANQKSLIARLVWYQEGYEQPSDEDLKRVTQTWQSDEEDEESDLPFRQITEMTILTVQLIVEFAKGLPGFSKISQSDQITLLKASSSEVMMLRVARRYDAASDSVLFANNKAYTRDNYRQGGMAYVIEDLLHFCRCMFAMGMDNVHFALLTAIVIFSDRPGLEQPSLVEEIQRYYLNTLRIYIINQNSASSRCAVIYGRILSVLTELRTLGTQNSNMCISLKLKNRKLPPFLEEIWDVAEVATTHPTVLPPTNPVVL
T1 sequence (P19793 1-462 partner): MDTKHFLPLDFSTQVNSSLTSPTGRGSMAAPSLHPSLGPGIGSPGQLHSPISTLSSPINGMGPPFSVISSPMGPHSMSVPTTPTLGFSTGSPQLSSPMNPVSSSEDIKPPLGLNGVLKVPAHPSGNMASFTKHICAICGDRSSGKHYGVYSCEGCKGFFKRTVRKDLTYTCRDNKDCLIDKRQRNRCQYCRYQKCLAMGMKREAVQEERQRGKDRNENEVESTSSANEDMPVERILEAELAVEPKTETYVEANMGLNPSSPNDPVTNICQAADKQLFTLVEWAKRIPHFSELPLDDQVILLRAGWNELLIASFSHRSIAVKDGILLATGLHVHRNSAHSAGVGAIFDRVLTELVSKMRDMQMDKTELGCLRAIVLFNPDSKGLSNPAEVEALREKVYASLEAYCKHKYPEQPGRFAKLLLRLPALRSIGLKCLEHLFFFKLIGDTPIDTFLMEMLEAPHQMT
Assay: Z3 assay: β-galactosidase (LacZ) reporter gene fold induction in stably transformed human 293 kidney cells (clone Z3)
Type: cell-based
In short: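 β-Galactosidase read 48 h after dosing by bioluminescent assay; ligand added at 33 μM with DMSO held at 0.03%. The cells are stable 293 clone Z3, expressing a CMV-driven VP16 fusion of Bombyx mori EcR residues 26-546 plus six EcRE copies upstream of lacZ.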

[1] = average; dose response, three-parameter logistic model; read-out: Z3 LC50
[2] = maximum fold induction at any concentration relative to that of GS-E ligand
[3] = single dose 33 μM; ligand treated / DMSO treated cells; read-out: Fold Induction Average, Z3 Assay (33 μM)
[4] = read-out: Fold Induction Average, Z3 Assay (33 μM)
[5] = read-out: Z3 LC50; average; dose response, three-parameter logistic model
[6] = single dose 33 μM; ligand treated / DMSO treated cells

## CCC(CC)(NC(=O)c1cccc(OC)c1C)C(=O)c1cccc(C)c1 [Example 48]
[1]
  CC50: 6.61 µM
[2]
  Z3 Rel Max FI: 0.25
[3]
  fold induction at 33 µM: 356

## COc1cccc(C(=O)NC2(C(=O)c3ccc(C)cc3)CCCCC2)c1C [Example 15]
[2]
  Z3 Rel Max FI: 0.70
[4]
  fold induction at 33 µM: 921
[5]
  CC50: 3.01 µM

## COc1cccc(C(=O)NC2(C(=O)c3cc(F)c(F)c(OC)c3)CCCCC2)c1C [Example 68]
[2]
  Z3 Rel Max FI: 0.70
[4]
  fold induction at 33 µM: 1010
[5]
  CC50: 2.83 µM

## COC(=O)CN1CCCC(NC(=O)c2cccc(OC)c2C)(C(=O)c2cc(C)cc(C)c2)C1 (racemic) [Example 156]
[1]
  CC50: ~20 µM
[2]
  Z3 Rel Max FI: 0.03
[6]
  Fold Induction Average, Z3 Assay (33 μM): 78

## COc1cccc(C(=O)NC2(C(=O)c3ccc(F)cc3)CCCCC2)c1C [Example 60]
[2]
  Z3 Rel Max FI: 0.61
[4]
  fold induction at 33 µM: 817
[5]
  CC50: ~6 µM

## CCc1c(OC)cccc1C(=O)NC1(C(=O)c2ccccc2)CCCC1 [Example 21]
[2]
  Z3 Rel Max FI: 0.33
[4]
  fold induction at 33 µM: 305
[5]
  CC50: ~15 µM

## CCc1c(C(=O)NC2(C(=O)c3ccccc3)CCCC2)ccc2c1OCCO2 [Example 22]
[2]
  Z3 Rel Max FI: 0.48
[4]
  fold induction at 33 µM: 602
[5]
  CC50: ~10 µM

## COc1cccc(C(=O)NC2(C(=O)c3cccc(C)c3)CCOCC2)c1C [Example 25]
[2]
  Z3 Rel Max FI: 0.07
[4]
  fold induction at 33 µM: 19
[5]
  CC50: ~20 µM

## COc1cc(C(=O)C2(NC(=O)c3cccc(OC)c3C)CCCCC2)cc(OC)c1C [Example 66]
[2]
  Z3 Rel Max FI: 0.17
[4]
  fold induction at 33 µM: 341
[5]
  CC50: 3.33 µM

## COc1ccc(C(=O)C2(NC(=O)c3cccc(OC)c3C)CCCCC2)c(OC)n1 [Example 64]
[2]
  Z3 Rel Max FI: 0.77
[4]
  fold induction at 33 µM: 1160
[5]
  CC50: 2.62 µM

## COc1cc(C(=O)C2(NC(=O)c3cccc(OC)c3C)CCCC2)cc(OC)c1C [Example 65]
[1]
  CC50: 8.84 µM
[2]
  Z3 Rel Max FI: 0.06
[6]
  Fold Induction Average, Z3 Assay (33 μM): 151

## COc1cccc(C(=O)NC(C)(C(=O)c2ccc(C)cc2)C(C)C)c1C (stereo not shown) [Example 33]
[1]
  CC50: ~20 µM
[2]
  Z3 Rel Max FI: 0.05
[3]
  fold induction at 33 µM: 31

## COc1cccc(C(=O)NC2(C(=O)c3cc(C)cc(C)c3)CC2)c1C [Example 13]
[2]
  Z3 Rel Max FI: 0.22
[4]
  fold induction at 33 µM: 293
[5]
  CC50: 20.4 µM

## COc1cccc(C(=O)NC2(C(=O)c3cc(C)cc(C)c3)CCC3(CC2)OCCO3)c1C [Example 29]
[2]
  Z3 Rel Max FI: 0.06
[4]
  fold induction at 33 µM: 116
[5]
  CC50: ~15 µM

## COc1cccc(C(=O)NC2(C(=O)c3cc(C)cc(C)c3)CCCCC2)c1C [Example 11]
[1]
  CC50: 1.41 µM
[2]
  Z3 Rel Max FI: 0.99
[3]
  fold induction at 33 µM: 722

## COc1cccc(C(=O)NC2(C(=O)c3ccccc3C)CCCCC2)c1C [Example 44]
[2]
  Z3 Rel Max FI: 0.23
[4]
  fold induction at 33 µM: 94
[5]
  CC50: 16.8 µM

## CCC(CC)(NC(=O)c1cccc(OC)c1C)C(=O)c1ccc(F)cc1 [Example 38]
[1]
  CC50: 13.7 µM
[2]
  Z3 Rel Max FI: 0.04
[3]
  fold induction at 33 µM: 51

## COc1cccc(C(=O)NC(C)(C(=O)c2ccccc2)C(C)C)c1C (stereo not shown) [Example 34]
[2]
  Z3 Rel Max FI: 0.04
[4]
  fold induction at 33 µM: 66
[5]
  CC50: > 33 µM

## COc1cccc(C(=O)NC(C)(C(=O)c2ccccc2C)C(C)C)c1C (stereo not shown) [Example 63]
[1]
  CC50: 17.9 µM
[2]
  Z3 Rel Max FI: 0.26
[3]
  fold induction at 33 µM: 453

## COc1cccc(C(=O)NC2(C(=O)c3cc(C)cc(C)c3)CCOCC2)c1C [Example 27]
[2]
  Z3 Rel Max FI: 0.81
[4]
  fold induction at 33 µM: 562
[5]
  CC50: 10 µM

## COc1cccc(C(=O)NC2(C(=O)c3ccc(F)c(C)c3)CCCC2)c1C [Example 17]
[2]
  Z3 Rel Max FI: 0.43
[4]
  fold induction at 33 µM: 393
[5]
  CC50: 3.47 µM

## COc1cccc(C(=O)NC(C)(C(=O)c2cccc(C)c2)C(C)C)c1C (stereo not shown) [Example 31]
[1]
  CC50: 8.61 µM
[2]
  Z3 Rel Max FI: 0.47
[3]
  fold induction at 33 µM: 312

## COc1cccc(C(=O)NC2(C(=O)c3cc(C)cc(C)c3)CCS(=O)(=O)CC2)c1C [Example 62]
[2]
  Z3 Rel Max FI: 0.10
[4]
  fold induction at 33 µM: 347
[5]
  CC50: ~15 µM

## COc1cccc(C(=O)C(C)(C)NC(=O)c2ccccc2OC)c1 [Example 117]
[6]
  Fold Induction Average, Z3 Assay (33 μM): 1

## COc1cccc(C(=O)NC2(C(=O)c3cc(C)cc(C)c3)CCSCC2)c1C [Example 28]
[1]
  CC50: 1.6 µM
[2]
  Z3 Rel Max FI: 0.98
[3]
  fold induction at 33 µM: 1220

## COc1cccc(C(=O)NC2(C(=O)c3cc(C)cc(C)c3)CCC2)c1C [Example 14]
[1]
  CC50: 8.52 µM
[2]
  Z3 Rel Max FI: 0.69
[3]
  fold induction at 33 µM: 945

## CCC(CC)(NC(=O)c1cccc(OC)c1C)C(=O)c1cc(C)cc(C)c1 [Example 51]
[1]
  CC50: 4.53 µM
[2]
  Z3 Rel Max FI: 0.61
[3]
  fold induction at 33 µM: 817

## COc1cccc(C(=O)C(C)(NC(=O)c2cccc(OC)c2C)C(C)C)c1 (stereo not shown) [Example 32]
[2]
  Z3 Rel Max FI: 0.12
[4]
  fold induction at 33 µM: 33
[5]
  CC50: 25.5 µM

## COc1cccc(C(=O)NC2(C(=O)c3cccc(C)c3)CCSCC2)c1C [Example 26]
[2]
  Z3 Rel Max FI: 0.60
[4]
  fold induction at 33 µM: 751
[5]
  CC50: ~15 µM

## COc1cccc(C(=O)NC(C)(CC(C)C)C(=O)c2cc(C)cc(C)c2)c1C (stereo not shown) [Example 55]
[2]
  Z3 Rel Max FI: 0.72
[4]
  fold induction at 33 µM: 309
[5]
  CC50: 3.4 µM

## COc1cccc(C(=O)NC2(C(=O)c3ccc(F)c(C)c3)CCCCC2)c1C [Example 18]
[2]
  Z3 Rel Max FI: 0.67
[4]
  fold induction at 33 µM: 657
[5]
  CC50: 3.41 µM

## COc1cccc(C(=O)NC(C)(Cc2ccccc2)C(=O)c2cc(C)cc(C)c2)c1C (stereo not shown) [Example 12]
[2]
  Z3 Rel Max FI: 0.09
[4]
  fold induction at 33 µM: 76
[5]
  CC50: 10 µM

## CCC(CC)(NC(=O)c1cccc(OC)c1C)C(=O)c1ccccc1OC [Example 37]
[2]
  Z3 Rel Max FI: 0.29
[4]
  fold induction at 33 µM: 327
[5]
  CC50: 6.19 µM

## CCC(CC)(NC(=O)c1cccc(OC)c1C)C(=O)c1ccc(F)c(C)c1 [Example 50]
[2]
  Z3 Rel Max FI: 0.07
[4]
  fold induction at 33 µM: 178
[5]
  CC50: 10.4 µM

## COc1cccc(C(=O)NC2(C(=O)c3ccc(F)cc3)CCCC2)c1C [Example 42]
[2]
  Z3 Rel Max FI: 0.14
[4]
  fold induction at 33 µM: 153
[5]
  CC50: ~15 µM

## COc1cccc(C(=O)C(C)(CC(C)C)NC(=O)c2cccc(OC)c2C)c1 (stereo not shown) [Example 53]
[2]
  Z3 Rel Max FI: 0.11
[4]
  fold induction at 33 µM: 112
[5]
  CC50: 23.7 µM

## COc1cccc(C(=O)NC(C)(C(=O)c2cc(C)cc(C)c2)C(C)C)c1C (stereo not shown) [Example 20]
[2]
  Z3 Rel Max FI: 0.75
[4]
  fold induction at 33 µM: 573
[5]
  CC50: 2.06 µM
